Entries after “also recorded” stand apart in the source; their conditions may differ.
Experiments:
[1] = test system: wild type (WT) C57BL/6 mice, post-ischemic (IR) kidney; experiment: Unilateral ischemia reperfusion injury (uIRI) model of AKI, post-ischemic treatment, wild type mice; assay type: in vivo, mouse; conditions: for reduction in fibrosis assessed by Picro Sirius red staining / perfusion of IR kidney (visual): 7.5 mg/kg IP on alternate days from day 2
Protocol: Wild type (WT) C57BL/6 mice (7 week old) were procured by The Jackson Laboratory and acclimatized for 1 week at standard conditions (23° C.-25° C.; 40-60% humidity with standard diet). Post acclimatization animals were subjected to unilateral ischemia reperfusion (uIRI) model of acute kidney injury (AKI) in mice as described previously. [Rajendran, G et al., 2020, J Am Soc Nephrol 31(3) 501-516] Briefly, adult C57BL/6 mice (8 weeks old) were anesthetized with xylazine (10 mg/kg intraperitoneally) and ketamine (90-120 mg/kg intraperitoneally). Post anesthesia, a small incision in the midline of the abdomen was created and the left renal pedicle was occluded with a microaneurysm clamp, while the right kidney served as an internal control. The abdomen was temporarily partly closed by covering with clean stretch film, and the body temperature was monitored with a rectal probe and maintained at 37° C. using a heating pad. After 25 minutes, the clamps were removed, and reperfusion was visually confirmed. The abdomen was closed with a 6-0 suture and the skin with Michel miniature clips. Post-ischemia reperfusion injury (IRI), mice were randomly divided into two groups: 1. Vehicle treated (WT-Veh) and 2. Syrosingopine treated (WT-Syro). Treatment with syrosingopine or vehicle was initiated on day 2 post-IRI, a time point characterized by established kidney injury. Syrosingopine (Syro) was administered intraperitoneally (7.5 mg/kg body weight, prepared in mixture of DMSO and Tween 80) on alternate days (FIG. 1A). WT-Veh group was treated with mixture of DMSO+Tween 80 (Veh) and served as control group. On days 7 and 14 post-IRI, mice were sacrificed, and kidney damage was examined using standard methods of histopathological and molecular analysis.
Histopathological Analysis Isolated kidneys were fixed in buffered formalin for 24 h and paraffin blocks were papered using automated tissue processor (Leica Biosystems). 5 μm thick paraffin kidney sections were cut and stained with hematoxylin and eosin, and Picro Sirius red. Images were captured under microscope and were analysed using Image J (National Institutes of Health [NIH]). […] Fibrosis was assessed by the percentage of Picro-Sirius red^+ve area determined with ImageJ software (http://rsbweb.nih.gov/ij). For tubular injury scoring and quantification of Picro-Sirius red^+ve area ^310 and ^35 random visual fields of corticomedullary region, respectively were analyzed per kidney section for each sample at a magnification of ×200.
RNA and Protein Analyses RNA was isolated using Trizol from contralateral (uninjured right kidney) and IR (post unilateral clamping left kidney) kidneys and used for real-time quantitative PCR (qPCR) analysis of fibrosis and inflammatory related genes. 18S was used to normalize mRNA.
Total RNA was extracted using TRIzol reagent (n=4). Bulk RNAseq was performed by Admera Health. RNA integrity was checked with an Agilent Technologies 2100 Bioanalyzer. Poly(A) RNA sequencing libraries were prepared. Paired-ended sequencing was performed on an Illumina sequencing system. FastQC (version v0.11.8) was applied to check the quality of raw reads. Trimmomatic (version v0.38) was applied to cut adaptors and trim low-quality bases with the default setting. STAR Aligner version 2.7.1a was used to align the reads. Picard tools (version 2.20.4) was applied to mark duplicates of mapping. The StringTie version 2.0.4 was used to assemble the RNA-Seq alignments into potential transcripts. The featureCounts (version 1.6.0)/HTSeq was used to count mapped reads for genomic features such as genes, exons, promoter, gene bodies, genomic bins and chromosomal locations. The De-Seq2 (version 1.14.1) was used to do differential analysis.

[2] = test system: PHD^TiEC mice, post-ischemic kidney; experiment: Unilateral renal IRI in PHD^TiEC mice, post-ischemic treatment; assay type: in vivo, mouse; conditions: day 14 post uIRI
From the text: As the primary metabolic response of the post-ischemic endothelium to HIF stabilization in the context of PHD inactivation was increased glycolysis, we next focused on this aspect. While increased lactate generation and efflux via the transporter MCT4 represent the final steps of hypoxia-induced glycolysis, lactate export was recently shown to be among the four key steps controlling glycolytic flux. […] Indeed, immunofluorescence staining confirmed high expression of MCT4 protein in the post-ischemic kidney endothelium of PHD^TiEC (FIG. 10A and FIG. 19). We next sought to investigate whether increased endothelial MCT4 causally contributes to the maladaptive post-ischemic kidney repair observed in the PHD^TiEC mice. To this end, we used syrosingopine, a dual inhibitor of monocarboxylate transporters MCT1 and MCT4 (60-fold higher potency on MCT4), which leads to end-product inhibition of glycolysis. As depicted in FIG. 10B, PHD^TiEC mice were treated with syrosingopine or vehicle starting on day 2 after uIRI and then every other day until day 14 post uIRI. […] MCT4 inhibition diminishes endothelial derived pro-inflammatory responses induced by hypoxia-reoxygenation and IL-1
Male mice 8-10 weeks of age underwent renal IRI surgery as previously described [Torosyan R, et al. Hypoxic preconditioning protects against ischemic kidney injury through the IDO1/kynurenine pathway. Cell Rep. 2021;36(7):109547]. Anesthesia was induced by IP injection of xylazine (10 mg/kg IP) and ketamine (90-120 mg/kg IP). After making a small midline abdominal incision, the left renal pedicle was occluded by applying a microaneurysm clamp for 25 minutes, while the right kidney was kept intact as an internal control in the unilateral IRI. For bilateral renal IRI, clamps were applied in both renal pedicles for 23 minutes. After the specified time, the clamps were removed, and reperfusion was visually confirmed. The incision site was closed with a 6-0 suture followed by the closure of the skin wound with Michel miniature clips. Throughout the surgical procedure, body temperature was monitored by a rectal probe and controlled with a heating pad at 37° C.
For in vivo MCT4 inhibition studies, mice were treated with syrosingopine (7.5 mg/kg) or vehicle starting on day 2 post IRI every other day until dissection on day 14 post IRI.
(§1) DNA and RNA were extracted and used for genomic or real-time PCR analysis, as previously described [Majmundar A J, et al. Hypoxia-Inducible Factors and the Response to Hypoxic Stress. Mol Cell. 2010; 40(2):294-309]. Real-time PCR was run in the QuantStudio 3 Real-Time PCR system (Applied Biosystems) using SYBR green or TaqMan PCR Master Mix. 18S rRNA was used for normalization.
For the histological examination, kidneys were fixed in 10% formalin buffer and paraffin blocks were prepared. To assess tubular damage and interstitial fibrosis, 5-μm transverse plane kidney sections were separately stained with hematoxylin and eosin (H&E) and Picro-Sirius red. […] Fibrosis was assessed by the percentage of Picro-Sirius red^+ve area determined with ImageJ software (http://rsbweb.nih.gov/ij). For tubular injury scoring and quantification of Picro-Sirius red^+ve area ^310 and ^35 random visual fields of corticomedullary region, respectively were analyzed per kidney section for each sample at a magnification of ×200.

[3] = test system: human primary pulmonary artery endothelial cells (HPAECs); experiment: EC adhesion molecule mRNA in HPAECs activated by hypoxia/reoxygenation and IL-1β; assay type: cell-based; conditions: 5 μM; hypoxia 0.5% O2 18 h, reoxygenation 8 h with IL-1β 1 ng/mL; vs vehicle
Protocol: (§2) To assess whether MCT4 inhibition acts cell-autonomously in ECs to suppress pro-inflammatory responses, we performed in vitro experiments in which human primary pulmonary artery endothelial cells (HPAECs) were activated by 18 hours exposure to hypoxia (0.5% O2), followed by reoxygenation for 8 hours in the presence of IL-1β treatment (1 ng/mL) (FIG. 11A). To inhibit MCT4, we first used syrosingopine at concentration of 5 μM, which diminished lactate secretion, as indicated by reduction in extracellular lactate levels (FIG. 20A). […] Consistent responses were observed when we used siRNA against MCT4. […] (FIGS. 11D and E).
as §1
(§3) Human primary pulmonary artery ECs (HPAECs) were obtained from ATCC and grown on gelatin-coated dishes in Endothelial Cell Basal Medium-2 (Lonza, Catalog #CC-3156) supplemented with EGM-2 SingleQuots Supplements (Lonza, Catalog #CC-4176). MCT4 siRNA was purchased from Qiagen (FlexiTube GeneSolution GS9123 for SLC16A3; Catalog #1027416). […]

[4] = test system: THP-1 monocyte adhesion to HPAECs; experiment: Endothelial-monocyte cell adhesion assay; assay type: cell-based, human; conditions: 5 μM; hypoxia-reoxygenation and IL-1β; 90 min incubation; vs vehicle
Protocol: as §2
as §3, with “#1027416). AllStars negative control siRNA (Qiagen) was used as control siRNA. HiPerFect transfection reagent (Qiagen, Catalog #301707) was used for siRNA transfection experiments.” for “#1027416).”
Endothelial-monocyte cell adhesion assay. […] After 90 minutes, floating cells were removed, and fluorescent imaging was performed with quantification of the adhered monocytes using Fiji image J.

HPAECs = experiment: Lactate measurements in HPAEC media; assay type: cell-based, human; conditions: 5 μM, 24 hours; vs vehicle (DMSO)
Protocol: Lactate measurements. […] Then, cell media were collected, and lactate levels were measured by a Lactate assay kit (Sigma, Catalog #MAK064) following the kit's instruction and protocol.

MCT4 = biological target: T1, MCT4 (Homo sapiens, UniProt O15427); conditions: dual MCT1/MCT4 inhibitor; cited from earlier work
T1 sequence (O15427 2-465 limits assumed): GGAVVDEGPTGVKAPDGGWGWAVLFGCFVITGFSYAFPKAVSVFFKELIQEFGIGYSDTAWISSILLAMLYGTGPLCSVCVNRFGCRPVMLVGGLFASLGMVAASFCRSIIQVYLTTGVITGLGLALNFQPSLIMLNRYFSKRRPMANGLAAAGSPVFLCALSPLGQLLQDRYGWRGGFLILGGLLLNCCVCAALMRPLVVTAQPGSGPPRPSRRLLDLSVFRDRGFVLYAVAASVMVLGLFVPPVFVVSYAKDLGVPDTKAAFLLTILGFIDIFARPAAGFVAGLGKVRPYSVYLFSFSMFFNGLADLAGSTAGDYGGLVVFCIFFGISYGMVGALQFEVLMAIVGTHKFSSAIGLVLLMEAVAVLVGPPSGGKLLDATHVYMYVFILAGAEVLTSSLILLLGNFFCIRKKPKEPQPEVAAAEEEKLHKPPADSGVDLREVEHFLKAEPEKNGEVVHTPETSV
T1 sequence (P35613 140-385 partner limits assumed): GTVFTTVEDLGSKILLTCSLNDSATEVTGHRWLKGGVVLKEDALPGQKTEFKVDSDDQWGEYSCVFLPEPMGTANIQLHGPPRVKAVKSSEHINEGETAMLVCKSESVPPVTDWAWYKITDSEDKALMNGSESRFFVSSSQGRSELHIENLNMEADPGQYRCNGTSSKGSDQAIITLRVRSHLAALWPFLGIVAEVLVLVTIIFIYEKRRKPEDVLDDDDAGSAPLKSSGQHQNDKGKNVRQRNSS

[5] = day 7 and day 14 post IRI, 7.5 mg/kg IP, vs vehicle, 7.5 mg/kg
[6] = 7.5 mg/kg every other day from day 2, vs vehicle

Structure (SMILES): CCOC(=O)Oc1c(OC)cc(C(=O)O[C@@H]2C[C@@H]3CN4CCc5c([nH]c6cc(OC)ccc56)[C@H]4C[C@@H]3[C@H](C(=O)OC)[C@H]2OC)cc1OC [syrosingopine]
- Icam1 mRNA level in IR kidney (qPCR) [1, 5]: substantially lower levels; also recorded: significant reduction
- Loxl2 mRNA level in IR kidney (qPCR) [1, 5]: substantially lower levels; also recorded: significant reduction
- Tgfβ1 mRNA level in IR kidney (qPCR) [1, 5]: substantially lower levels; also recorded: significant reduction
- Vcam1 mRNA level in IR kidney (qPCR) [1, 5]: substantially lower levels; also recorded: significant reduction
- Picro-Sirius red stained area (fibrosis), image analysis ([1]; day 7 and day 14 post IRI, vs vehicle-treated controls): significantly less staining
- tubular injury scoring ([1]; day 7 and day 14 post-IRI kidneys, 7.5 mg/kg IP, vs vehicle, 7.5 mg/kg): less injury; also recorded: reduced tubular damage
- genes associated with pro-inflammatory pathways (bulk RNA-seq) ([1]; day 7 and day 14 post-IRI kidneys, vs vehicle): suppression
- reduction in fibrosis assessed by Picro Sirius red staining ([1]; day 7 post IRI, vs vehicle): 25%
- reduction in fibrosis assessed by Picro Sirius red staining ([1]; day 14 post IRI, vs vehicle): 62%
- perfusion of IR kidney (visual) ([1]; day 14 post IRI, vs vehicle, 7.5 mg/kg): improved perfusion
- perfusion of IR kidney (visual) ([1]; day 14 post IRI, vs vehicle, listed as Syrosingopine, 7.5 mg/kg): visually better perfused
- genes of metabolic pathways, oxidative phosphorylation and fatty acid metabolism (bulk RNA-seq) ([1]; day 14 post-IRI kidneys, vs vehicle): significantly up-regulated; also recorded: upregulated
- reduction in collagen accumulation (Picro-Sirius red) [2, 6]: ~51%
- reduction in tubular injury scoring [2, 6]: ~37%
- Acta2 mRNA level ([2]; vs vehicle treated group): significantly downregulated
- Loxl2 mRNA level ([2]; vs vehicle treated group): significantly downregulated
- Tgfb1 mRNA level ([2]; vs vehicle treated group): significantly downregulated
- ICAM1 mRNA expression [3]: significantly suppressed
- VCAM1 mRNA expression [3]: significantly suppressed
- reduction of adhesion of monocytes (THP-1 cells) to HPAECs [4]: ~48%
- extracellular lactate levels (HPAECs): reduction
- higher potency towards MCT4 than MCT1 (MCT4): 60 fold

Source: patent US20240245661A1, “MCT4-TARGETED THERAPEUTICS PREVENTING AKI TO CKD TRANSITION” (Northwestern University, priority 2023, published 2024)
